Assay results from patent US20050043304A1, “Novel amine derivative having human beta-tryptase inhibitory activity and drugs containing the same” (priority 2001, published 2005).
Like-named read-outs stand apart in the source and are kept apart here.

How the values were obtained:
β-tryptase = target: T1, β-tryptase (Homo sapiens, UniProt Q15661); test: β-Tryptase Inhibition Test; type: biochemical
T1 construct: purchased Promega Corporation
Procedure: Sixty μL of a tris-hydrochloric acid buffer (pH 7.5, containing 200 ng/mL of heparin) was added to 20 μL of β-tryptase (manufactured by Promega Corporation) adjusted to 100 ng/mL with the same buffer. Then, 1 μL of a dimethyl sulfoxide (hereinafter, abbreviated to DMSO) solution as a test compound adjusted to a concentration 100 times as high as the final concentration was added to the mixture. After that, 20 μL of a 0.5 mM synthetic substrate Boc-Phe-Ser-Arg-MCA (manufactured by Peptide Institute, Inc) was added to the mixture, and the whole was reacted at 25° C. for 1 hour, followed by the addition of 100 μL of 20% acetic acid for stopping the reaction. Measured was fluorescence of free MCA generated by laser light with an excitation wavelength of 355 nm (fluorescent wavelength=460 nm, hereinafter abbreviated to F 460 nm).
Δ fluorescence count value (a fluorescence count value after an enzyme reaction—a fluorescence count value before the enzyme reaction) was used for a measure of an enzyme inhibition reaction of a drug, and the enzyme inhibition reaction was evaluated in terms of a suppression rate calculated by the following equation.
A=Δ F 460 nm of a mixture (control) of a substrate containing 1% DMSO and an enzyme
B=Δ F 460 nm of a mixture of a substrate containing a drug dissolved in DMSO and an enzyme
C=Δ F 460 nm of a mixture (blank) containing 1% DMSO and a substrate
Suppression rate (%)=(A−B)×100/(A−C)
The β-tryptase inhibitory activity was measured by the method described above.

FXa = target: T2, FXa (Homo sapiens, UniProt P00742); test: FXa Inhibition Test; type: biochemical
T2 construct: FXa (manufactured by Enzyme Research Ltd.); purchased Enzyme Research Ltd
T2 sequence (P00742 235-488 limits assumed): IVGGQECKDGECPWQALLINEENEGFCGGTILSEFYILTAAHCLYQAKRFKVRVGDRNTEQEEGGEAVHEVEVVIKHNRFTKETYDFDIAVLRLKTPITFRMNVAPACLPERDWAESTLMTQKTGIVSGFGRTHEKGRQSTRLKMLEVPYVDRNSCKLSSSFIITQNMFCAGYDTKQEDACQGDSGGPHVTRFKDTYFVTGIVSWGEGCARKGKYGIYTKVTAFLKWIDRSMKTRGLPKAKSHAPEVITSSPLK
T2 sequence (P00742 41-179 partner limits assumed): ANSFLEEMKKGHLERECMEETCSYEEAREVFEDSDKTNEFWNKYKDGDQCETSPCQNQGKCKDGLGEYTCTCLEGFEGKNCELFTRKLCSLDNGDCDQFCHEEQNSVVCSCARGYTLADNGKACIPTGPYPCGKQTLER
Procedure: 158 μL of a 20 mM tris-hydrochloric acid buffer (pH 7.5, containing 130 mM NaCl, 3.75 mM CaCl2, and 0.1% BSA) was placed on a 96 well microplate, and 20 μL of FXa (manufactured by Enzyme Research Ltd.) adjusted to 0.1 U/mL with the buffer was added to the buffer. Then, 2 μL of a DMSO solution as a test compound adjusted to a concentration 100 times as high as the final concentration was added to the mixture, and the whole was reacted at 37° C. for 3 minutes. After that, 20 μL of an S-2222 substrate solution adjusted to 2 mM with the buffer was added to the mixture, and the whole was reacted at 37° C. for 30 minutes, followed by addition of 100 μL of 20% acetic acid for stopping the reaction. After that, OD 405 nm was measured with a microplate reader.

trypsin = test: Trypsin Inhibition Test; type: biochemical; details: substrate S-2222, 37° C., 20 minutes; read-out: Enzyme Inhibition IC50 Trypsin
Procedure: Added to 158 μL of a 20 mM tris-hydrochloric acid buffer (pH 7.5, containing 130 mM NaCl, 3.75 mM CaCl2, and 0.1% BSA) was 20 μL of a trypsin solution (manufactured by Sigma, a stock solution of […] was adjusted to 100 ng/mL with 0.001 N HCl containing 0.1% BSA). After that, 2 μL of a DMSO solution as a test compound adjusted to a concentration 100 times as high as the final concentration was added to the mixture, and the whole was reacted at 37° C. for 3 minutes. Then, 20 μL of a 2 mM synthetic substrate S-2222 (manufactured by Daiichi Pure Chemicals Co., Ltd.) was added to the mixture, and the whole was reacted at 37° C. for an additional 20 minutes, followed by addition of 100 μL of 20% acetic acid for stopping the reaction. After that, absorbance at 405 nm (hereinafter, abbreviated to OD 405 nm) was measured with a microplate reader.

[1] = read-out: β-tryptase inhibitory activity in terms of IC50
[2] = read-out: FXa inhibiting activity in terms of IC50
[3] = substrate Boc-Phe-Ser-Arg-MCA, 25° C., 1 hour, read-out: Tryptase Inhibiting Activity IC50
[4] = selectivity test, Table 7, read-out: Enzyme Inhibition IC50 Tryptase
[5] = substrate S-2222, 37° C., 30 minutes, read-out: Enzyme Inhibition IC50 FXa
[6] = Tryptase Inhibiting Activity IC50, substrate Boc-Phe-Ser-Arg-MCA, 25° C., 1 hour
[7] = Enzyme Inhibition IC50 Tryptase, selectivity test, Table 7

T1 sequence (Q15661 31-275): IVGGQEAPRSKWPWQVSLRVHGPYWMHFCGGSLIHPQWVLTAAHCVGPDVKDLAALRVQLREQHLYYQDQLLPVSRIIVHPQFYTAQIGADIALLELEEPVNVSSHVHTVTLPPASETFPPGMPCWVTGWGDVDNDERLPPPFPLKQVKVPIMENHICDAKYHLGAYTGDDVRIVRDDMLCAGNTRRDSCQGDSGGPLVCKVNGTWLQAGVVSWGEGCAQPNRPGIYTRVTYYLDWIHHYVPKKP

CN(CCCc1ccc(CN)cc1)CCNC(=O)c1cc2cc(Br)ccc2[nH]1 [compound 61]
IC50 (β-tryptase; [1]): ≤ 10 nM
IC50 (FXa; [2]): ≥ 100000 nM

CN(CCCc1ccc(CN)cc1)CCNC(=O)c1cc2cc(Cl)ccc2[nH]1 [compound 58]
IC50 (β-tryptase; [1]): ≤ 10 nM
IC50 (FXa; [2]): ≥ 100000 nM

CCN(CCCc1ccc(CN)cc1)CCNS(=O)(=O)c1ccc2ccccc2c1 [Compound 18]
IC50 (β-tryptase; [3]): 140 nM

CN(CCCc1ccc(CN)s1)CCNC(=O)c1cc2ccccc2s1 [Compound 90]
IC50 (β-tryptase; [3]): 200 nM

NCc1ccc(CCCN(CCNS(=O)(=O)c2ccc3ccccc3c2)CCC(=O)O)cc1 [Compound 33]
IC50 (β-tryptase; [3]): 440 nM

CN(CCCc1ccc(CN)cc1)CCNC(=O)c1cc2cc(Cl)ccc2[nH]1 [Compound 58]
IC50 (β-tryptase; [4]): 6 nM
IC50 (trypsin): > 100000 nM
IC50 (FXa; [5]): > 100000 nM
melting point: 166.4 to 170 °C

NCc1ccc(CCCNCCNS(=O)(=O)c2ccc3c(c2)CCC3)cc1 [Compound 7]
IC50 (β-tryptase; [6]): 200 nM
melting point: 199 to 199.7 °C

CN(CCCc1ccc(CN)nc1)CCNC(=O)c1ccc2[nH]ccc2c1 [Compound 89]
IC50 (β-tryptase; [3]): 140 nM

CN(CCCc1ccc(CN)cc1)CCNCc1cc2ccccc2s1 [Compound 91]
IC50 (β-tryptase; [3]): 310 nM

NCc1ccc(CCCNCCNS(=O)(=O)c2ccc3ccccc3c2Cl)cc1 [compound 4]
IC50 (FXa; [2]): ≥ 100000 nM

CN(CCCc1ccc(CN)cc1)CCNC(=O)c1ccc2cc[nH]c2c1 [Compound 53]
IC50 (β-tryptase; [3]): 5 nM

Cc1ccc2[nH]c(C(=O)NCCN(C)CCCc3ccc(CN)cc3)cc2c1 [Compound 55]
IC50 (β-tryptase; [4]): 5 nM
IC50 (β-tryptase; [3]): 5 nM
IC50 (trypsin): > 100000 nM
IC50 (FXa; [5]): > 100000 nM

Cc1ccc2[nH]c(C(=O)NCCN(C)CCCc3ccc(CN)cc3)cc2c1 [compound 55]
IC50 (β-tryptase; [1]): ≤ 10 nM
IC50 (FXa; [2]): ≥ 100000 nM

CN(CCCc1ccc(CN)cc1)CCNC(=O)c1sc2ccccc2c1Cl [Compound 49]
IC50 (β-tryptase; [3]): 15 nM

CC(=O)c1ccc2[nH]c(C(=O)NCCN(C)CCCc3ccc(CN)cc3)cc2c1 [compound 70]
IC50 (β-tryptase; [1]): ≤ 10 nM
IC50 (FXa; [2]): ≥ 100000 nM

NCc1ccc(CCCNCCNC(=O)c2ccc3ncccc3c2)cc1 [Compound 13]
IC50 (β-tryptase; [3]): 190 nM
melting point: 269.5 to 271.2 °C

CN(CCCc1ccc(CN)cc1)CCNC(=O)c1ccc2cc(Br)ccc2c1 [Compound 41]
IC50 (β-tryptase; [4]): 8 nM
IC50 (trypsin): > 100000 nM
IC50 (FXa; [5]): > 100000 nM

NCc1ccc(CCCNCCNC(=O)c2ccc3ccccc3c2)cc1 [Compound 11]
IC50 (β-tryptase; [4]): 150 nM
IC50 (β-tryptase; [3]): 150 nM
IC50 (trypsin): > 30000 nM
IC50 (FXa; [5]): > 30000 nM
melting point: 69.7 to 72.2 °C

CC(=O)c1ccc2[nH]c(C(=O)NCCN(C)CCCc3ccc(CN)cc3)cc2c1 [Compound 70]
IC50 (β-tryptase; [4]): 8 nM
IC50 (trypsin): > 100000 nM
IC50 (FXa; [5]): > 100000 nM

NCc1ccc(CCCNCCNS(=O)(=O)c2ccc3ccccc3c2Cl)cc1 [Compound 4]
IC50 (trypsin): > 100000 nM
IC50 (FXa; [5]): > 100000 nM
melting point: 264.3 to 265.6 °C

CN(CCCc1ccc(CN)cc1)CCNC(=O)c1cc2cc(C(=O)O)ccc2[nH]1 [Compound 69]
IC50 (β-tryptase; [3]): 55 nM

CN(CCCc1ccc(CN)cc1)CCNC(=O)c1nc2ccccc2s1 [Compound 77]
IC50 (β-tryptase; [3]): 73 nM

CN(CCCc1ccc(CN)cc1)CCNC(=O)c1cc2cc(C(F)(F)F)ccc2[nH]1 [Compound 63]
IC50 (β-tryptase; [3]): 32 nM

CN(CCCc1ccc(CN)cc1)CCNC(=O)c1ccc2occc2c1 [Compound 46]
IC50 (β-tryptase; [3]): 64 nM

NCc1ccc(CCCNCCNS(=O)(=O)c2ccc3ccccc3c2)cc1 [Compound 1]
IC50 (β-tryptase): 86 nM
IC50 (β-tryptase; [7]): 86 nM
IC50 (trypsin): > 100000 nM
IC50 (FXa; [5]): > 100000 nM

CN(CCCc1ccc(CN)cc1)CCNC(=O)c1cc2cc(F)ccc2[nH]1 [Compound 62]
IC50 (β-tryptase; [3]): 14 nM

CN(CCCc1ccc(CN)cc1)CCNC(=O)c1cc2ccccc2o1 [Compound 45]
IC50 (β-tryptase; [3]): 20 nM

CN(CCCc1ccc(CN)cc1)CCN(C)C(=O)c1cc2cc(Cl)ccc2[nH]1 [compound 87]
IC50 (β-tryptase; [1]): ≤ 10 nM

CN(CCCc1ccc(CN)cc1)CCNC(=O)c1cc2cc(Br)ccc2[nH]1 [Compound 61]
IC50 (β-tryptase; [4]): 6 nM
IC50 (β-tryptase; [3]): 6 nM
IC50 (trypsin): > 100000 nM
IC50 (FXa; [5]): > 100000 nM

CN(CCCc1ccc(CN)cc1)CCNS(=O)(=O)c1ccc2ccccc2c1 [Compound 17]
IC50 (β-tryptase): 120 nM
IC50 (β-tryptase; [7]): 120 nM
IC50 (trypsin): > 30000 nM
IC50 (FXa; [5]): > 30000 nM
melting point: 91.6 to 92 °C

CN(CCCc1ccc(CN)cc1)CCNC(=O)c1ccc2c(ccn2C)c1 [compound 73]
IC50 (β-tryptase; [1]): ≤ 10 nM

CN(CCCc1ccc(CN)cc1)CCNC(=O)c1ccc2ncsc2c1 [Compound 78]
IC50 (β-tryptase; [3]): 20 nM

CN(CCCc1ccc(CN)cc1)CCNC(=O)c1ccc2cc(Br)ccc2c1 [compound 41]
IC50 (β-tryptase; [1]): ≤ 10 nM
IC50 (FXa; [2]): ≥ 100000 nM

CN(CCCc1ccc(CN)cc1)CCNS(=O)(=O)c1ccc2ccccc2c1Cl [Compound 20]
IC50 (β-tryptase; [3]): 15 nM
melting point: 221.5 to 222.7 °C

CN(CCCc1ccc(CN)cc1)CCNC(=O)c1ccc2c(ccn2C)c1 [Compound 73]
IC50 (β-tryptase; [3]): 1 nM

CN(CCCc1ccc(CN)cc1)CCNC(=O)c1ccc2cc[nH]c2c1 [compound 53]
IC50 (β-tryptase; [1]): ≤ 10 nM

CN(CCCc1ccc(CN)cc1)CCNC(=O)c1c[nH]c2ccccc12 [Compound 51]
IC50 (β-tryptase; [3]): 100 nM

NCc1ccc(CCCNCCNS(=O)(=O)c2ccc3sccc3c2)cc1 [Compound 5]
IC50 (β-tryptase; [6]): 210 nM
melting point: 264.2 to 265.4 °C

CN(CCCc1ccc(CN)cc1)CCNC(=O)c1cc2cc(OCc3ccccc3)ccc2[nH]1 [Compound 72]
IC50 (β-tryptase; [4]): 15 nM
IC50 (trypsin): > 100000 nM
IC50 (FXa; [5]): > 100000 nM

NCc1ccc(CCCNCCNS(=O)(=O)c2ccc3c(c2)CNCC3)cc1 [Compound 9]
IC50 (β-tryptase; [6]): 190 nM
melting point: 233.9 to 234.5 °C

CN(CCCc1ccc(CN)cc1)CCN(C)C(=O)c1cc2cc(Cl)ccc2[nH]1 [Compound 87]
IC50 (β-tryptase; [3]): 1 nM
melting point: 190.2 to 191.4 °C
